Patent US20160215111A1, “MATERIALS AND METHODS” (THE UNIVERSITY OF SYDNEY, priority 2013, published 2016)

Tests used:
Human dermal fibroblasts [1] = assay: Cell morphology / spreading and patterned cell distribution by phase contrast microscopy; type: cell-based
Description: PFTE and polystyrene were obtained from Goodfellow. PEEK was sourced from Vitrex. Peptide 36 ([…]) and peptide 36 short ([…]) were synthesized by Auspep. Recombinant human tropoelastin corresponding to amino acid residues 27-724 of GenBank entry AAC98394 (gi 182020) was expressed and purified as previously described. Human dermal fibroblasts were cultured in a humidified 5% CO2 atmosphere in DMEM (Invitrogen) supplemented with 10% (v/v) fetal calf serum (Invitrogen), and passaged 1 in 10 every 3-4 days. Unless stated otherwise all other reagents were purchased from Sigma.
Samples were contact or shadow masked during PIII treatment by layering 3 mm wide low contact ADH kapton tape (contact mask) (Associated Gaskets, Australia) or a 130 μm stainless steel plate (shadow mask) (Mastercut Technologies, Australia) over the sample during PIII treatment. The masks were removed immediately after treatment.
Samples were peptide 36 coated, BSA blocked and cell seeded as for cell attachment. After incubation for 90 min the cells were fixed with the addition of 37% (w/v) formaldehyde directly to the cell media to achieve a final concentration of 3% (w/v) for 20 min. For opaque samples the cells were crystal violet stained as for cell attachment. The cell morphology was then observed by phase contrast microscopy.

Human dermal fibroblasts [2] = assay: Cell attachment of human dermal fibroblasts to peptide coated polymer samples (crystal violet); type: cell-based; conditions: for % cell attachment / maximal % cell attachment: BSA blocked; for cell binding activity after dry autoclaving / cell binding activity after heating: coated at pH 10, 0 mM NaCl; for cell binding activity after dry autoclaving: 120° C., 20 min (FIG. 10); for maximal % cell attachment: coating concentration 50 μM
Description: PFTE and polystyrene were obtained from Goodfellow. PEEK was sourced from Vitrex. […] Human dermal fibroblasts were cultured in a humidified 5% CO2 atmosphere in DMEM (Invitrogen) supplemented with 10% (v/v) fetal calf serum (Invitrogen), and passaged 1 in 10 every 3-4 days. Unless stated otherwise all other reagents were purchased from Sigma.
Where stated samples were incubated in 2% Tween-20 for 10 min at 70° C. then washed with PBS. Where stated non-specific cell binding was prevented with incubation in 10 mg/ml heat denatured (80° C./10 min) BSA for 1 hour at room temperature. Confluent 75 cm^2 flasks of cells were harvested by trypsinization, and the cell density adjusted to 5×10^5 cells/ml in serum free DMEM. The cells were added to the samples for 60 min at 37° C., 5% CO2 then non-adherent cells were removed with 2×1 PBS washes. Adherent cells were fixed with the addition of 5% glutaraldehyde (w/v) in PBS for 20 min. The samples were washed 3×PBS, and then the cells were stained with 0.1% (w/v) crystal violet in 0.2M MES pH 5.0 for 1 h at room temperature. After washing extensively with dH2O the samples were transferred to fresh tissue culture plates and the crystal violet was solubilised in 10% (v/v) acetic acid. The absorbance was measured at 570 nm using a plate reader. The absorbance was converted to % cell attachment using the equation of a linear regression fit of standard known cell number controls.
Samples were peptide coated as for cell attachment analysis then washed 3× with PBS. […] The samples were then autoclaved at 120° C., 100 kPa above atmospheric pressure with steam for 20 min. For slow cooled samples the temperature of the autoclave returned to room temperature over a period of 4 hours. The other samples were removed once the autoclave reached 70° C. and were immediately immersed in room temperature PBS. All samples were washed 3× with PBS prior to measuring cell attachment.

[3] = system: rabbit polyclonal antibody with specificity against the C-terminal RKRK motif of tropoelastin; assay: C-terminal ELISA detection of RKRK exposure; type: binding; conditions: for C-terminal ELISA detection: tissue culture plastic, increasing coating concentration (FIG. 13)
Description: Rabbit polyclonal antibodies against exon 36 were raised by Biomatik. A peptide corresponding to exon 36 ([…]) conjugated to Keyhole Limpet Hemocyanin was used to immunize New Zealand rabbits. Exon 36 specific antibodies were purified from the resulting immune serum by affinity chromatography using the immunogen peptide. […] Therefore this protocol produced a rabbit polyclonal antibody with specificity against the C-terminal RKRK motif of tropoelastin.
Untreated or PIII treated polystyrene was incubated in peptide 36 containing buffer (10 mM PO4, 150 mM NaCl) of increasing pH for 1 hour at room temperature. After peptide immobilization the samples were washed 3× with PBS to remove non-bound peptide. Background antibody binding was blocked with 3% (w/v) BSA for 1 hour at room temperature. The primary rabbit-anti-C-terminal antibody was diluted to 1:5000 and added to the samples for 1 hour at room temperature. Non-bound antibody was removed with 3×PBS washes then detected with 1:10,000 diluted goat anti-rabbit whole IgG-HRP conjugated secondary antibody for 1 hour at room temperature. The secondary antibody was removed, the samples washed 3×PBS washes and then transferred to fresh tissue culture plates. ABTS solution (40 mM ABTS, 0.1 mM NaOAc, 0.05M NaH2PO4, 0.01% H2O2, pH 5) was added for 30 min and the absorbance read at 405 nm.

[4] = tape or shadow masked PIII treated polymer (polystyrene, PTFE; FIG. 4)
[5] = untreated polystyrene (FIG. 3C)
[6] = PIII treated polystyrene (FIG. 3A, B)
[7] = post PIII allylamine vapor treated PTFE (30 min exposure), versus PIII treated PTFE (FIG. 6B)
[8] = untreated polystyrene (FIG. 3A, B)

## ACLGKACG [ΔRKRK peptide 36, peptide 36 where the RKRK motif was deleted]
Human dermal fibroblasts [1]; PIII treated polystyrene (FIG. 3C)
  cell spreading: did not elicit cell spreading
Human dermal fibroblasts [1]; [4]
  patterned cell distribution: absence of cell attachment and spreading
Human dermal fibroblasts [1]; [5]
  cell spreading: did not elicit cell spreading
Human dermal fibroblasts [2]; PIII treated PTFE (FIG. 6B)
  cell binding activity: low levels of cell binding activity
Human dermal fibroblasts [2]; [6]
  cell attachment: did not support cell binding
Human dermal fibroblasts [2]; [7]
  cell binding activity: low levels of cell binding activity
Human dermal fibroblasts [2]; untreated PTFE (FIG. 6B)
  cell binding activity: low levels of cell binding activity
Human dermal fibroblasts [2]; [8]
  cell attachment: did not support cell binding
[3]
  C-terminal ELISA detection: not capable of detecting

## ACLGKACGRKRK [peptide 36]
Human dermal fibroblasts [1]; tape masked PIII treated PTFE, association buffer pH 7.4, 150 mM NaCl (FIG. 11)
  patterned cell distribution: retained selectively by peptide 36 on the untreated regions
Human dermal fibroblasts [1]; tape masked PIII treated PTFE, association buffer pH 10, 0 mM NaCl (FIG. 11)
  patterned cell distribution: cell binding on both the untreated and PIII treated sections
Human dermal fibroblasts [1]; tape masked PIII treated PTFE, washed with 2% Tween-20 or 5% SDS in pH 10, 0 mM NaCl at 70° C., gradual cooling (FIG. 11)
  patterned cell distribution: cell attachment exclusively in the PIII treated regions
Human dermal fibroblasts [1]; [4]
  patterned cell distribution: clearly restricted to the untreated regions
Human dermal fibroblasts [1]; untreated polymer, Tween-20 washed
  cell spreading after Tween-20 washing: removed peptide 36 dependent cell spreading activity
Human dermal fibroblasts [1]; [5]
  cell spreading: phase dark and flattened
Human dermal fibroblasts [2]; 800 second PIII treated PTFE
  % cell attachment: 4.3±1.8%
Human dermal fibroblasts [2]; PIII treated PTFE (FIG. 6B)
  cell binding activity: low levels
Human dermal fibroblasts [2]; PIII treated PTFE and PEEK, pH 6 association buffer (FIG. 7C, D)
  cell binding activity: low levels of cell binding activity
Human dermal fibroblasts [2]; PIII treated PTFE and PEEK, pH 10 association buffer (FIG. 7C, D)
  cell binding activity: high levels of cell binding activity
Human dermal fibroblasts [2]; PIII treated PTFE
  cell binding activity after dry autoclaving: not cell adhesive
Human dermal fibroblasts [2]; PIII treated PTFE, incubations of 70° C. and above (FIG. 9)
  cell binding activity after heating: baseline levels of cell binding
Human dermal fibroblasts [2]; PIII treated PTFE, pH 6, 150 mM NaCl autoclave liquid (FIG. 10A)
  cell binding activity after liquid autoclaving: reduced to background levels
Human dermal fibroblasts [2]; PIII treated PTFE, pH 10, 0 mM NaCl autoclave liquid, gradual cooling to room temperature (FIG. 10C)
  cell binding activity after liquid autoclaving: comparable peptide 36-cell binding activity to the no-autoclave control
Human dermal fibroblasts [2]; PIII treated PTFE, pH 10, 0 mM NaCl autoclave liquid, rapid cooling (FIG. 10B)
  cell binding activity after liquid autoclaving: partial peptide 36-cell binding activity was retained
Human dermal fibroblasts [2]; [6]
  cell attachment: not cell adhesive
Human dermal fibroblasts [2]; PIII treated polystyrene, association buffer pH 10, 150 mM NaCl (FIG. 7B)
  cell binding activity: maximal cell binding activity
Human dermal fibroblasts [2]; PIII treated polystyrene, association buffers of up to pH 8, 150 mM NaCl (FIG. 7B)
  cell binding activity: low levels of cell biding activity
Human dermal fibroblasts [2]; PIII treated polystyrene
  maximal % cell attachment: 5.1±0.5%
Human dermal fibroblasts [2]; PIII treated surface, 150 mM NaCl association buffer, pH 7.4 (FIG. 7A)
  cell binding activity: background levels of binding
Human dermal fibroblasts [2]; PIII treated surface, low ionic strength association buffer, pH 7.4 (FIG. 7A)
  cell binding activity: high levels of peptide 36-cell binding activity
Human dermal fibroblasts [2]; PTFE, 160 seconds of N2 plasma treatment
  peptide dependent cell attachment: background levels
Human dermal fibroblasts [2]; PTFE, N2 plasma treatments up to 20 seconds before coating
  % cell attachment: 99.3-106.9%
Human dermal fibroblasts [2]; [7]
  cell binding activity: far greater levels of cell binding activity
Human dermal fibroblasts [2]; untreated PTFE (FIG. 6B)
  cell binding activity: high levels of cell binding
Human dermal fibroblasts [2]; untreated PTFE
  cell binding activity after dry autoclaving: retained
Human dermal fibroblasts [2]; untreated PTFE, heated above 40° C. (FIG. 9)
  cell binding activity after heating: not altered
Human dermal fibroblasts [2]; untreated PTFE, regardless of the liquid buffer conditions (FIG. 10)
  cell binding activity after liquid autoclaving: lost
Human dermal fibroblasts [2]; untreated and PIII treated PTFE, heated 10 min up to 40° C. in pH 7.4, 150 mM NaCl (FIG. 9)
  cell binding activity after heating: remained cell adhesive
Human dermal fibroblasts [2]; untreated and PIII treated PTFE, coated in pH 10, 0 mM NaCl buffer (FIG. 10)
  cell binding activity without autoclaving: cell adhesive on both untreated and PIII treated PTFE
Human dermal fibroblasts [2]; [8]
  cell attachment: high levels of cell adhesion
Human dermal fibroblasts [2]; untreated polystyrene, Tween-20 washed
  cell attachment after Tween-20 washing: background levels
Human dermal fibroblasts [2]; untreated polystyrene, 50 μM peptide, 10 mM PO4 pH 7.4, independent of NaCl content of association buffer (FIG. 7A)
  cell binding activity: high levels of cell-binding activity
Human dermal fibroblasts [2]; untreated polystyrene
  maximal % cell attachment: 98.6±12.5%
Human dermal fibroblasts [2]; untreated polystyrene, insensitive to pH of association buffer, 150 mM NaCl (FIG. 7B)
  cell binding activity: high levels of cell binding activity
[3]; PIII treated polystyrene, association buffers with pH up to 8 (FIG. 8B)
  C-terminal ELISA detection of RKRK exposure: low levels of peptide 36 RKRK exposure
[3]; PIII treated polystyrene, coating concentrations up to 50 μM, 10 mM PO4, 150 mM NaCl, pH 7.4 (FIG. 8A)
  C-terminal ELISA detection of RKRK exposure: little RKRK-dependent antibody detection
[3]; PIII treated polystyrene, pH 10 association buffer, compared with untreated polystyrene (FIG. 8B)
  C-terminal ELISA detection of RKRK exposure: not statistically different to those obtained on untreated polystyrene
[3]
  C-terminal ELISA detection: detected
[3]; untreated polystyrene, 50 μM peptide, association buffer of increasing pH (FIG. 8B)
  C-terminal ELISA detection of RKRK exposure: detected peptide 36 across the entire range of pH
[3]; untreated polystyrene, 10 mM PO4, 150 mM NaCl, pH 7.4, increase up to 10 μM coating, none further at 50 μM (FIG. 8A)
  C-terminal ELISA detection of RKRK exposure: detected peptide 36 bound to the surface in a coating concentration dependent manner
